How the values were obtained:
SARM1 SAM-TIR lysate = SARM1 SAM-TIR lysate (Homo sapiens (Human), UniProt Q6SZW1); assay: Luminescence-based NAD+ Glo (NAD+ cycling) assay with SAM-TIR lysate; format: biochemical
From the text: Luminescence-based assay. This assay can complement the results obtained by HPLC, and can permit a higher throughput of compound library screening than is possible with HPLC methods. This assay is an adaptation of the NAD+/NADH-GLO™ assay (Promega G9071, Promega Corporation, Madison, WI). In this assay, NAD+ cycling enzymes convert NAD+ into NADH. In the presence of NADH, the reductase enzymatically converts a pro-luciferin reductase substrate into luciferin. Luciferin is detected using ULTRA-GLO™ rLuciferase, and the chemiluminescence intensity is proportional to the amount of NAD+ and NADH in the sample. Under the present assay conditions, the amount of NAD+ and NADH present in the lysate is undetectable with this assay, precluding any endogenous contribution to the final NAD+ detected. The assay was set up as follows: 2 μl candidate inhibitor (final concentration 1 μM, 2% DMSO), 0.07 μg lysate (2 μl), and 2 μl of 400 nM NAD+. The reaction was incubated at 37° C. for 60 min, then 6 μl NAD+/NADH-GLO™ detection reagent was added. After 30 min at room temperature, the luminescent signals were quantified using a CYTATION™ 5 imaging reader (BIOTEK®).

DRG neurons = assay: In vitro axon degeneration assay after axotomy (degeneration index); format: cell-based, mouse
Description: Mouse dorsal root ganglion (DRG) were dissected from embryonic days 13.5 CD1 mouse embryo (˜50 ganglion per embryo) and incubated with 0.05% Trypsin solution containing 0.02% EDTA (Gibco) at 37° C. for 15 min. Then cell suspensions are triturated by gentle pipetting and washed 3 times with DRG growth medium (Neurobasal medium (Gibco) containing 2% B27 (Invitrogen), 100 ng/ml 2.5S NGF (Harlan Bioproduts), 1 μM uridine (Sigma), 1 μM 5-fluoro-2′-deoxyuridine (Sigma), penicillin, and streptomycin). Cells were suspended in DRG growth medium at a ratio of 100 μl medium/50 DRGs. The cell density of these suspensions was ˜7×10^6 cells/ml. Cell suspension (10 μl) was placed in the center of the well using 24-well tissue culture plates (Corning) coated with poly-D-Lysine (0.1 mg/ml; Sigma) and laminin (3 μg/ml; Invitrogen). […]
Axonal degeneration was induced by axotomy or by the addition of vincristine (0.04 μM) using DRG drop cultures in 96 well at DIV 6. […] Axon degeneration was quantified using degeneration index (DI) calculated using ImageJ (NIH, Sasaki et al., 2009, J. Neurosci., […]: 5525-5535). […] The DI was calculated from axon images from the same fields before (0 hour) and after (9-72 hours) axotomy. […] Axon degeneration was monitored by imaging axons before injury, and various time points after axotomy.

SARM1 TIR [1] = biological target: T1, SARM1 TIR (Homo sapiens (Human), UniProt Q6SZW1); assay: SARM1 TIR-based assay (bacterially expressed, tagged SARM1 TIR fragment on beads); format: biochemical; settings: compound at 5 μM, 5 μM NAD+
From the text: The present Example describes a SARM1 TIR-based Assay. This assay is similar to the assay described in Example 1, but allows for the identification and/or characterization of compounds that directly interact with the TIR domain, whereas the assay described in Example 1 can also identify compounds that disrupt SAM domain interactions. This assay makes use of the bacterial expression of a tagged version of the SARM1 TIR fragment that can be affinity purified. Displaying this artificial SARM1 TIR domain on a solid surface (i.e. affinity beads) generates an active NAD+ cleavage enzyme.
The TIR domain of SARM1 was tagged with a tandem STREP-TAG® at the N-terminus, and a polyhistidine tag at the C-terminus, and was cloned into a pET30a+ plasmid. The construct was then transformed into SHuffle® T7 Express Competent E. coli (New England BioLabs, Ipswich, MA) and single colonies were grown overnight. The next day, cultures were diluted in LB media, grown at 30° C. until they reached A600=0.4-0.8, when IPTG (0.5 mM final concentration) was added. The bacteria were grown for an additional 4 h, pelleted by centrifugation, washed with PBS and stored at −80° C. For protein purification, the frozen bacterial pellet was thawed on ice, resuspended in binding buffer (without protease inhibitors) and incubated with 100 μg/mL lysozyme for 15 min on ice. Protease inhibitor cocktail was then added and the cells were lysed by sonication.
The SARM1 TIR protein was first purified by Strep Tag affinity methods where bacterial lysates were incubated with […] (STREP-TACTIN®, IBA GmBH, Gottingen Germany) type 3 XT beads suspension (IBA Lifesciences) for 30 min. The beads were then washed three times with binding buffer, and bound proteins were eluted from MagStrep type 3 XT beads with 22.5 mM biotin for 25 min. Supernatant containing the eluted protein was separated from MagStrep beads, and incubated with 10 μL Co2+ DYNABEAD® (ThermoFisher Scientific, Waltham, MA) suspension for 30 min to bind SARM1-TIR proteins via the His tag. The beads were then washed at least two times with binding buffer and resuspended in 100 μL of binding buffer for NADase assay.
Ten microliters of purified SARM1-TIR laden beads were incubated with 5 μM NAD+ in reaction buffer (92.4 mM NaCl and 0.64×PBS). Reactions were carried out at 25° C. for the indicated amount of time and stopped by addition of 1M of perchloric acid (HClO4) and placing the tube on ice. NAD+ metabolites were extracted using HClO4/K2CO3 method and quantified by HPLC (see metabolite measurement below). For LC-MS/MS analysis, the extraction was performed using 50% methanol in distilled water and chloroform (see LC-MS/MS metabolite measurement below). […] Select potent inhibitors (622608, 622689) identified from SARM1 SAM-TIR lysate screen were added to the reaction at 5 μM. NAD normalized to control at 0 min.
Metabolites were isolated from enzyme reaction mixture by extracting with 1M HClO4, then neutralized with 3M K2CO3, and followed by separation by centrifugation. The supernatant (90 μL) containing the extracted metabolites was mixed with 0.5M Potassium Phosphate buffer (10 μL) and metabolites were analyzed by HPLC (Nexera X2) with KINETEX® (100×3 mm, 2.6 μm; PHENOMENEX®) column and metabolites are monitored with absorbance at 254 nm. Internal standards for NAD+, Nicotinamide (Nam), ADP Ribose (ADPR) were used to generate standard curves for quantification of the respective compounds. The levels for each compound in each experimental sample was normalized to the 0 min time point that was analyzed concurrently.
These analogs were tested using an assay that makes use of a bacterially-expressed tagged version of the SARM1 TIR fragment, as described in Example 2. Displaying this artificial SARM1 TIR domain on a solid surface (i.e. affinity beads) generates an active NAD+ cleavage enzyme.
Target sequence in this assay (Q6SZW1 other isoform, or with tags, fused parts or gaps): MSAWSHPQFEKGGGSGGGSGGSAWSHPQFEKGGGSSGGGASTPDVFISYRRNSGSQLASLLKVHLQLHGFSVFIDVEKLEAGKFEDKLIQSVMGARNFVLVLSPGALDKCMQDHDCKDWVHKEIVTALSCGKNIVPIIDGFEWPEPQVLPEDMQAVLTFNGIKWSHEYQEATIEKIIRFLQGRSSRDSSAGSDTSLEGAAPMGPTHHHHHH

SARM1 TIR [2] = biological target: T1, SARM1 TIR; assay: In vitro NADase assay with SARM1-TIR complexes purified from NRK1-HEK293T cells, substrate specificity; format: biochemical
Description: Approximately 10 million cells were plated and transfected the next day with 15 μg of StrepTag SARM1-TIR construct DNA using X-tremeGENE™ 9 reagent (Sigma-Aldrich, St. Louis MO). […] After 2 days the cells were harvested and lysed by sonication in binding buffer (50 mM Sodium Phosphate buffer pH 8, 300 mM Sodium Chloride, 0.01% Tween-20, protease inhibitor tablets). For single step affinity purification, the whole cell lysates were incubated with 20 μL MagStrep (Strep-Tactin) type 3 XT beads suspension (IBA Lifesciences) for 30 min. The beads were then washed three times with binding buffer and resuspended in 100 μL of binding buffer for enzymatic assays and other downstream applications.
Ten microliters of beads incubated with the indicated cell lysate were incubated with 5 μM NAD in reaction buffer (92.4 mM NaCl and 0.64×PBS). […] NAD+ metabolites were extracted using HClO4/K2CO3 method and quantified by HPLC (see HPLC for metabolite measurement). […]
Metabolites were isolated from enzyme reaction mixture by extracting with 1M HClO4, then neutralized with 3M K2CO3, and followed by separation by centrifugation. The supernatant (90 μL) containing the extracted metabolites was mixed with 0.5M Potassium Phosphate buffer (10 μL) and metabolites were analyzed by HPLC (Nexera X2) with Kinetex (100×3 mm, 2.6 μm; Phenomenex) column. […]
Target sequence in this assay (Q6SZW1 561-724): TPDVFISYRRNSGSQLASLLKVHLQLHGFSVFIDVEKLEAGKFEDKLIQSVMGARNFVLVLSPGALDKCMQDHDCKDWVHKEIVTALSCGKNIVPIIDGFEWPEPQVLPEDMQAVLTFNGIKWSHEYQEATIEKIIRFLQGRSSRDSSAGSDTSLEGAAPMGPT

SARM1 TIR [3] = biological target: T1, SARM1 TIR; assay: NADase assay with purified bacterial hSARM1-TIR, enzyme inhibition studies; format: biochemical; settings: 1 mM in the reaction mixture, 5 min
Description: Ten microliters of beads incubated with the indicated cell lysate were incubated with 5 μM NAD in reaction buffer (92.4 mM NaCl and 0.64×PBS). Reactions were carried out at 25° C. for the indicated amount of time and stopped by addition of 1M of perchloric acid (HClO4) and placing the tube on ice. NAD+ metabolites were extracted using HClO4/K2CO3 method and quantified by HPLC (see HPLC for metabolite measurement).
Metabolites were isolated from enzyme reaction mixture by extracting with 1M HClO4, then neutralized with 3M K2CO3, and followed by separation by centrifugation. The supernatant (90 μL) containing the extracted metabolites was mixed with 0.5M Potassium Phosphate buffer (10 μL) and metabolites were analyzed by HPLC (Nexera X2) with Kinetex (100×3 mm, 2.6 μm; Phenomenex) column. […] The levels for each compound in each experimental sample were normalized to the 0 min time point that was analyzed concurrently.
The reaction was stopped after 5 min and NAD+ metabolites were extracted by the perchloric acid method and measured by HPLC as indicated above.

SARM1 SAM-TIR lysate, sequence (Q6SZW1 other isoform, or with tags, fused parts or gaps): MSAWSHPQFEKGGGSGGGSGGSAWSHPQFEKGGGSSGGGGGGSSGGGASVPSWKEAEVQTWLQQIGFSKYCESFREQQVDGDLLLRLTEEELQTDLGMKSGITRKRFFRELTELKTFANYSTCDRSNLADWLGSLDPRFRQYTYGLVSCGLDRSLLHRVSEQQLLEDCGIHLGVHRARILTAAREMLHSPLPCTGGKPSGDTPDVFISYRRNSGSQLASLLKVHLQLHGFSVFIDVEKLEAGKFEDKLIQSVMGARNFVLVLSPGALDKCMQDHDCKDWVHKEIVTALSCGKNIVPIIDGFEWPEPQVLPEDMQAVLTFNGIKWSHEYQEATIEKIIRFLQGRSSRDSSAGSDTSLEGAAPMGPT

Compound: Br.CN(C)c1nc(=NCc2ccco2)ss1 [NSC622608]
- IC50 (SARM1 SAM-TIR lysate): ~0.15 µM
- dose dependence of inhibition of axon degeneration (DRG neurons; 0.05 to 5 μM, added 30 min before axotomy): dose dependent inhibition of axon degeneration
- protection from axon degeneration (degeneration index) (DRG neurons; 24 h after axotomy): significant protection
- inhibition of NADase activity of purified SARM1 TIR (SARM1 TIR [1]): inhibit NADase activity of purified SARM1 TIR

Compound: Nc1ncnc2c1ncn2[C@@H]1O[C@H](COP(=O)(O)OP(=O)(O)OC[C@H]2O[C@@H]([n+]3cccc(C(=O)O)c3)[C@H](O)[C@@H]2O)[C@@H](O)[C@H]1O [NaAD, Nicotinic Acid Adenine Dinucleotide]
- degradation by wild type SARM1-TIR complexes (substrate specificity) (SARM1 TIR [2]): do not degrade

Compound: Nc1ncnc2c1ncn2[C@@H]1O[C@H](COP(=O)(O)OP(=O)(O)OC[C@H]2OC(O)[C@H](O)[C@@H]2O)[C@@H](O)[C@H]1O (stereo partly drawn) [ADPR, ADP Ribose]
- inhibition of SARM1-TIR NADase activity (SARM1 TIR [3]): did not inhibit
